From patent US12258327B2, “5-membered heteroaryl-containing aminopyridine compounds as EGFR inhibitors” (YUHAN CORPORATION, priority 2021, dated 2025)
Where two headings read alike, the source gives them in different places.

How the values were obtained:
[1] = biological target: EGFR wildtype (WT) (Homo sapiens, UniProt P00533); test: Biochemical EGFR kinase assay (Lance Ultra TR-FRET), wildtype
In short: (§1)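 Enzyme reactions lasted 1 hour at room temperature with test compounds between 0.003 and 10 μM, followed by 10 mM EDTA quench.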

[2] = biological target: EGFR L858R/T790M/C797S (Homo sapiens, UniProt P00533, C797S/L858R/T790M); test: Biochemical EGFR kinase assay (Lance Ultra TR-FRET), triple mutant L858R/T790M/C797S
In short: as §1

[3] = biological target: EGFR del19/C797S (Homo sapiens, UniProt P00533, C797S/DEL746-750); test: Biochemical EGFR kinase assay (Lance Ultra TR-FRET), double mutant del19/C797S
EGFR del19/C797S, sequence (P00533 with tags, fused parts or gaps DEL746-750/C797S): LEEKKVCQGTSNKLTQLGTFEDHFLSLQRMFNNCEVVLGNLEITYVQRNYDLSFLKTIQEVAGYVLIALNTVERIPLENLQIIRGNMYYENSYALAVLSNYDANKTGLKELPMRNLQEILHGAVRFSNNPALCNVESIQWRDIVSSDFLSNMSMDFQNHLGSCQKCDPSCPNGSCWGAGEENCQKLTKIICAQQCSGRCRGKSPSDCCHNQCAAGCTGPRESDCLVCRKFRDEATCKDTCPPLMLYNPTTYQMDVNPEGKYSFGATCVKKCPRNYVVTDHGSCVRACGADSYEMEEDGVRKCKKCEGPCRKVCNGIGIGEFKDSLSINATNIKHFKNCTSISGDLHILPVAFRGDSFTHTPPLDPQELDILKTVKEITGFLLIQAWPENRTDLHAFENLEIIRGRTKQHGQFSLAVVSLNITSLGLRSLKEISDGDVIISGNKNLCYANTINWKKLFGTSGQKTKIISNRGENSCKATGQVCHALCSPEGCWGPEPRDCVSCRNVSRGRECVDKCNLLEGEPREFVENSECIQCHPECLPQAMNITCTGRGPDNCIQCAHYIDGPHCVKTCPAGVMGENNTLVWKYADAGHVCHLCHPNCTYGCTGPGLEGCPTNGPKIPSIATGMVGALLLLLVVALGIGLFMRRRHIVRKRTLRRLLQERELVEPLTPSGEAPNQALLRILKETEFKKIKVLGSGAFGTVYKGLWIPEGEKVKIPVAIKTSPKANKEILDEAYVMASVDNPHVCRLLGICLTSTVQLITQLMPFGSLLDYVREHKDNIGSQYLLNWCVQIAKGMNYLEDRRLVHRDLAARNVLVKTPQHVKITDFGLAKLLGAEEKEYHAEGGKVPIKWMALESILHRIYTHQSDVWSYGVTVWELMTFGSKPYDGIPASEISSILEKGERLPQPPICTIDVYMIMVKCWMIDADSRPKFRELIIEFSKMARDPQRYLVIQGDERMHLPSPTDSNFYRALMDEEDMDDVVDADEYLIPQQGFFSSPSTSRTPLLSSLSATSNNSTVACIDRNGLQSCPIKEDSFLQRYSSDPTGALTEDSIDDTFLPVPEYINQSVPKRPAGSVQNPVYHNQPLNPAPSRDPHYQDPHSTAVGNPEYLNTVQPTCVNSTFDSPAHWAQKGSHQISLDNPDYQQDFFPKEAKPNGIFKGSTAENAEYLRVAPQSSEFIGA
In short: as §1

[4] = biological target: EGFR del19/T790M/C797S (Homo sapiens, UniProt P00533, C797S/DEL746-750/T790M); test: Biochemical EGFR kinase assay (Lance Ultra TR-FRET), triple mutant del19/T790M/C797S
EGFR del19/T790M/C797S, sequence (P00533 with tags, fused parts or gaps DEL746-750/T790M/C797S): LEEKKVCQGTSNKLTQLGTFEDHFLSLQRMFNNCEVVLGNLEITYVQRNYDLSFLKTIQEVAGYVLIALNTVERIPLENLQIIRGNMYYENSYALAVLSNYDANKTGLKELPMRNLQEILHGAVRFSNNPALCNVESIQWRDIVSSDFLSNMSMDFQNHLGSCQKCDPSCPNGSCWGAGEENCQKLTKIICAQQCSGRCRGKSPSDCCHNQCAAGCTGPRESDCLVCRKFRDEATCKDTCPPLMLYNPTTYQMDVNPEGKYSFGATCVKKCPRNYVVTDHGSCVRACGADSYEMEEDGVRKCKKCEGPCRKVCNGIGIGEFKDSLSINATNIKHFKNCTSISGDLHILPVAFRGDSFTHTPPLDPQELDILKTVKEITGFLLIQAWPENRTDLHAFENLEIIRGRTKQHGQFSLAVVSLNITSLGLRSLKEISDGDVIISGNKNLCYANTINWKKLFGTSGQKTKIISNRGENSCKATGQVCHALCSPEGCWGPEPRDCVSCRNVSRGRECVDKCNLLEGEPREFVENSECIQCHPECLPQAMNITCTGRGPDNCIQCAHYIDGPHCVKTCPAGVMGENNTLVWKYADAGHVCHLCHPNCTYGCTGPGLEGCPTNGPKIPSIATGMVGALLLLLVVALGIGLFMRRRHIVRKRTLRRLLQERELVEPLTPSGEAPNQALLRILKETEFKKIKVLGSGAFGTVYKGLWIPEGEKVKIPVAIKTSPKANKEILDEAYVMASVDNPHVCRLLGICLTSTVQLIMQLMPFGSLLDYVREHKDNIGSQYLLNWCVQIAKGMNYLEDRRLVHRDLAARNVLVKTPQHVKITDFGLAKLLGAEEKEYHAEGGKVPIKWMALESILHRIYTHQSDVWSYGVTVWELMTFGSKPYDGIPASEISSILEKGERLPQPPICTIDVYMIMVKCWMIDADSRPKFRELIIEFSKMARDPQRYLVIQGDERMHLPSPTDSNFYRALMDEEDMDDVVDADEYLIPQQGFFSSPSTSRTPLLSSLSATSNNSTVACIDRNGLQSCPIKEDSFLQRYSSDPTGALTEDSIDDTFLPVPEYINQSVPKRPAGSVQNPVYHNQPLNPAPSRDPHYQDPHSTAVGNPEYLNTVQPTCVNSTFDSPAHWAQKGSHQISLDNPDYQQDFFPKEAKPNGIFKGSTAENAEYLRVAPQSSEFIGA
In short: as §1

[5] = biological target: EGFR L858R/C797S (Homo sapiens, UniProt P00533, C797S/L858R); test: Biochemical EGFR kinase assay (Lance Ultra TR-FRET), double mutant L858R/C797S
EGFR L858R/C797S, sequence (P00533 25-1210 C797S/L858R): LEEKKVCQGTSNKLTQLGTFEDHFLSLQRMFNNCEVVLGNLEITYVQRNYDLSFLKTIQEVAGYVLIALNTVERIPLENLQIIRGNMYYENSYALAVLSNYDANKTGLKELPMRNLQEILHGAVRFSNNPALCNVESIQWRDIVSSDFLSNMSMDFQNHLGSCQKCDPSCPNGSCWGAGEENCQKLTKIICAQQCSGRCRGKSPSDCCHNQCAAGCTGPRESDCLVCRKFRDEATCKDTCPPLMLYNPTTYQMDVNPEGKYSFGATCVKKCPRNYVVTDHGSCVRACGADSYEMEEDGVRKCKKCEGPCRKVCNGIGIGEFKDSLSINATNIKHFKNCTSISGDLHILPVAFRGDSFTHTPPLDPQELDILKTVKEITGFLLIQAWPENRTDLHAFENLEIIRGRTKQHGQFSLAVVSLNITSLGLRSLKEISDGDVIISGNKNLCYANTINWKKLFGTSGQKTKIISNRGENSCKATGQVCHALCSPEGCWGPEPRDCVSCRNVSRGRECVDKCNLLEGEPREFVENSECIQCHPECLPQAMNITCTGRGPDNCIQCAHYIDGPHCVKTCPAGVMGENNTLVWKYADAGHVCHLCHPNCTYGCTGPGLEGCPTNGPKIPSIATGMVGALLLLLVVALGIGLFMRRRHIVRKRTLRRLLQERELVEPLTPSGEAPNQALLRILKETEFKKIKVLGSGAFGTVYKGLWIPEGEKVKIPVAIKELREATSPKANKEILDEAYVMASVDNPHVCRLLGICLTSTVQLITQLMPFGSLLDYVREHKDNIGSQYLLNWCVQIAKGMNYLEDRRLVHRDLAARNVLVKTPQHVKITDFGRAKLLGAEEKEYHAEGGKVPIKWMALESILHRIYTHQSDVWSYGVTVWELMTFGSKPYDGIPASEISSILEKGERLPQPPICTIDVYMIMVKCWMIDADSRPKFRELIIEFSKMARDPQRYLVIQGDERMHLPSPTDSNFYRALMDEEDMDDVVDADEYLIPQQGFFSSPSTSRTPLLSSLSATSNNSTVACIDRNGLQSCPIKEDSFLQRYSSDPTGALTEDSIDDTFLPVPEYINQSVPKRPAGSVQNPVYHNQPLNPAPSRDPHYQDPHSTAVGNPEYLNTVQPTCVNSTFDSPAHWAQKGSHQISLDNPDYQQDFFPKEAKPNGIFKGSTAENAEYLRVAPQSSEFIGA
In short: as §1

[6] = IC50 WT (nM) 100 μM ATP, 100 μM ATP
[7] = Km ATP, read-out: IC50 WT (nM) Km ATP
[8] = IC50 L858R/T790M/C797S (nM) 100 μM ATP, 100 μM ATP
[9] = Km ATP, read-out: IC50 L858R/T790M/C797S (nM) Km ATP
[10] = IC50 del19/C797S (nM) 100 μM ATP, 100 μM ATP
[11] = Km ATP, read-out: IC50 del19/C797S (nM) Km ATP
[12] = IC50 del19/T790M/C797S (nM) 100 μM ATP, 100 μM ATP
[13] = Km ATP, read-out: IC50 del19/T790M/C797S (nM) Km ATP
[14] = Km ATP, read-out: IC50 L858R/C797S (nM) Km ATP
[15] = Km ATP, read-out: IC50 WT, Km ATP
[16] = Km ATP, read-out: IC50 L858R/T790M/C797S, Km ATP
[17] = Km ATP, read-out: IC50 del19/C797S, Km ATP
[18] = Km ATP, read-out: IC50 del19/T790M/C797S, Km ATP
[19] = Km ATP, read-out: IC50 L858R/C797S, Km ATP
[20] = IC50 L858R/C797S (nM) 100 μM ATP, 100 μM ATP

EGFR wildtype (WT), sequence (P00533 25-1210): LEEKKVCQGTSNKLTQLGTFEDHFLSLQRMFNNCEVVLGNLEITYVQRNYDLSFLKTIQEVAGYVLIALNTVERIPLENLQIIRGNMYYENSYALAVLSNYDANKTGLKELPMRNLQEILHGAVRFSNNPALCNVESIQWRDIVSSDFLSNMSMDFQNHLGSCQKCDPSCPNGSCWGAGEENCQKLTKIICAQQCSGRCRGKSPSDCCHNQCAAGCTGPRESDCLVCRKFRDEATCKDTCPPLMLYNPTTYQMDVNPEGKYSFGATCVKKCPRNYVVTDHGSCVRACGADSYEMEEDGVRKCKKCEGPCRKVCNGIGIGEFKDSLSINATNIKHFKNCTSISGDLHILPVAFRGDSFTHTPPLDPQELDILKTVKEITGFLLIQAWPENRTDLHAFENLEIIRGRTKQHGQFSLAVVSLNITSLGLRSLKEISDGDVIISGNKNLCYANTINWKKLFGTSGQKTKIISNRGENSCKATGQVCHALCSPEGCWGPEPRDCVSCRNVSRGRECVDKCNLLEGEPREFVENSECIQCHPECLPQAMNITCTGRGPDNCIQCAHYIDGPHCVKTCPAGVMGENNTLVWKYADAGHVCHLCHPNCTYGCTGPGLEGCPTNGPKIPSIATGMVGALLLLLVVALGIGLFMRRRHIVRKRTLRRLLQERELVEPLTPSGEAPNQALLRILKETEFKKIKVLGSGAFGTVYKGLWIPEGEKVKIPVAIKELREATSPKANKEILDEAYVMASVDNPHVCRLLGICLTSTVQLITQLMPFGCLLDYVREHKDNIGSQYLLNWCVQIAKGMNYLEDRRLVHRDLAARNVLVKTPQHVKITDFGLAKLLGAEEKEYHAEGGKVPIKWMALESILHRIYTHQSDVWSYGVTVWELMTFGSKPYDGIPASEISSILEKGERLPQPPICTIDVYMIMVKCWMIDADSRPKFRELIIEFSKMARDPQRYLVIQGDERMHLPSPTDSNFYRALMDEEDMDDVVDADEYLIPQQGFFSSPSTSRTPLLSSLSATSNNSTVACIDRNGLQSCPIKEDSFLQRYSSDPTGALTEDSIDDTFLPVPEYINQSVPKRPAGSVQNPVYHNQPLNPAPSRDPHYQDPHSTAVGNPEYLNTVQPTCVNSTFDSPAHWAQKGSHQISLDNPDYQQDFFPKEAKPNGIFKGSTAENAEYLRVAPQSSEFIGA

Structure (SMILES)	IC50 [1, 6] [nM]	IC50 [1, 7] [nM]	IC50 [2, 8] [nM]	IC50 [2, 9] [nM]	IC50 [3, 10] [nM]	IC50 [3, 11] [nM]	IC50 [4, 12] [nM]	IC50 [4, 13] [nM]	IC50 [5, 14] [nM]	IC50 [1, 15] [nM]	IC50 [2, 16] [nM]	IC50 [3, 17] [nM]	IC50 [4, 18] [nM]	IC50 [5, 19] [nM]	IC50 ([1]; read-out: IC50 WT (nM) 100 μM ATP, 100 μM ATP) [nM]	IC50 ([2]; read-out: IC50 L858R/T790M/C797S (nM) 100 μM ATP, 100 μM ATP) [nM]	IC50 ([3]; read-out: IC50 del19/C797S (nM) 100 μM ATP, 100 μM ATP) [nM]	IC50 ([4]; read-out: IC50 del19/T790M/C797S (nM) 100 μM ATP, 100 μM ATP) [nM]	IC50 [5, 20] [nM]
Cn1nc(-c2cnc(Nc3ccnc(-c4cnn(S(=O)(=O)C5CC5)c4)n3)cc2N[C@H]2CC[C@@](C)(O)CC2)cc1C(C)(C)O [Example 293, (1s,4s)-4-((2-((2-(1-(Cyclopropylsulfonyl)-1H-pyrazol-4-yl)pyrimidin-4-yl)amino)-5-(5-(2-hydroxypropan-2-yl)-1-methyl-1H-pyrazol-3-yl)pyridin-4-yl)amino)-1-methylcyclohexan-1-ol]	183	0.6	0.4	0.2	0.9	0.8	0.6	0.4	0.3										
Cn1nc(-c2cnc(Nc3ccnc(-c4cnn(S(=O)(=O)C5CC5)c4)c3)nc2N[C@H]2CC[C@@](C)(O)CC2)cc1C(F)(F)F [Example 356, (1s,4s)-4-((2-((2-(1-(Cyclopropylsulfonyl)-1H-pyrazol-4-yl)pyridin-4-yl)amino)-5-(1-methyl-5-(trifluoromethyl)-1H-pyrazol-3-yl)pyrimidin-4-yl)amino)-1-methylcyclohexan-1-ol]										96.6	1.8	9.8	1.1	12.1					
CN(C)[C@H]1CC[C@H](CNc2cc(Nc3ccnc(-c4cnn(S(=O)(=O)C5CC5)c4)n3)ncc2-c2ccn(C(F)F)n2)CC1 [Example 25, N^2-(2-(1-(Cyclopropylsulfonyl)-1H-pyrazol-4-yl)pyrimidin-4-yl)-5-(1-(difluoromethyl)-1H-pyrazol-3-yl)-N^4-(((1r,4r)-4-(dimethylamino)cyclohexyl)methyl)pyridine-2,4-diamine]		2.7		0.02		0.2		0.1	0.3						2050	0.1	0.3	0.1	
O=S(=O)(C1CC1)n1cc(-c2nccc(Nc3cc(NC4CCN(CCF)CC4)c(-c4ccn(C(F)F)n4)cn3)n2)cn1 [Example 217, N^2-(2-(1-(Cyclopropylsulfonyl)-1H-pyrazol-4-yl)pyrimidin-4-yl)-5-(1-(difluoromethyl)-1H-pyrazol-3-yl)-N^4-(1-(2-fluoroethyl)piperidin-4-yl)pyridine-2,4-diamine]		454		0.4		28.7		0.2	23.7										
Cn1nc(-c2cnc(Nc3ccnc(-c4cnn(CC(F)F)c4)n3)cc2NN2CCC(O)CC2)cc1C(F)(F)F [Example 163, 1-((2-((2-(1-(2,2-Difluoroethyl)-1H-pyrazol-4-yl)pyrimidin-4-yl)amino)-5-(1-methyl-5-(trifluoromethyl)-1H-pyrazol-3-yl)pyridin-4-yl)amino)piperidin-4-ol]		737		0.9		55.3		1.8	744										
COCn1cc(-c2nccc(Nc3cc(N[C@H]4CC[C@@](C)(O)CC4)c(-c4ccn(C(F)F)n4)cn3)n2)cn1 [Example 310, (1s,4s)-4-((5-(1-(Difluoromethyl)-1H-pyrazol-3-yl)-2-((2-(1-(methoxymethyl)-1H-pyrazol-4-yl)pyrimidin-4-yl)amino)pyridin-4-yl)amino)-1-methylcyclohexan-1-ol]	> 10000		19		36.8	0.1	4												237
CC(O)C(C)(C)Nc1cc(Nc2ccnc(-c3cnn(S(=O)(=O)C4CC4)c3)n2)ncc1-c1ccn(C(F)F)n1 (centres unmarked) [Example 7, 3-((2-((2-(1-(Cyclopropylsulfonyl)-1H-pyrazol-4-yl)pyrimidin-4-yl)amino)-5-(1-(difluoromethyl)-1H-pyrazol-3-yl)pyridin-4-yl)amino)-3-methylbutan-2-ol]	> 10000		6		281		2.6												246
O=S(=O)(C1CC1)n1cc(-c2nccc(Nc3cc(NCC4CC5(CNC5)C4)c(-c4ccn(C(F)F)n4)cn3)n2)cn1 [Example 26, N^4-((2-Azaspiro[3.3]heptan-6-yl)methyl)-N^2-(2-(1-(cyclopropylsulfonyl)-1H-pyrazol-4-yl)pyrimidin-4-yl)-5-(1-(difluoromethyl)-1H-pyrazol-3-yl)pyridine-2,4-diamine]	3740	6.7	0.3	0.1	1.8	1.3	0.2	0.1	2.3										26.5
Cn1nc(-c2cnc(Nc3ccnc(-c4cnn(S(=O)(=O)C5CC5)c4)n3)cc2N[C@H]2CC[C@H](CCO)CC2)cc1C(F)(F)F [Example 263, 2-((1r,4r)-4-((2-((2-(1-(Cyclopropylsulfonyl)-1H-pyrazol-4-yl)pyrimidin-4-yl)amino)-5-(1-methyl-5-(trifluoromethyl)-1H-pyrazol-3-yl)pyridin-4-yl)amino)cyclohexyl)ethan-1-ol]	> 10000	54.5	11.5	2.6	237	15.5	9.9	0.3	6.3										32.5
Cn1ccc(-c2cnc(Nc3ccnc(-c4cnn(S(=O)(=O)C5CC5)c4)n3)cc2NC2CCCC(NCC(F)F)C2)n1 (centres unmarked) [Example 224, N^2-(2-(1-(Cyclopropylsulfonyl)-1H-pyrazol-4-yl)pyrimidin-4-yl)-N^4-(3-((2,2-difluoroethyl)amino)cyclohexyl)-5-(1-methyl-1H-pyrazol-3-yl)pyridine-2,4-diamine]	> 10000	37.8	0.7	0.3	4.7	3.3	0.7	0.5	6.6										132
Cc1ccn(-c2cnc(Nc3ccnc(-c4cnn(S(=O)(=O)C5CC5)c4)n3)cc2N[C@H]2CC[C@@](C)(O)CC2)n1 [Example 168, (1s,4s)-4-((2-((2-(1-(Cyclopropylsulfonyl)-1H-pyrazol-4-yl)pyrimidin-4-yl)amino)-5-(3-methyl-1H-pyrazol-1-yl)pyridin-4-yl)amino)-1-methylcyclohexan-1-ol]		26.9		0.1		6.5		0.2	3										
CC1(O)CCC(Nc2cc(Nc3ccnc(N4CCC(F)(F)C(O)C4)n3)ncc2-c2ccn(C(F)F)n2)CC1 (centres unmarked) [Example 350, 1-(4-((5-(1-(Difluoromethyl)-1H-pyrazol-3-yl)-4-(((1s,4s)-4-hydroxy-4-methylcyclohexyl)amino)pyridin-2-yl)amino)pyrimidin-2-yl)-4,4-difluoropiperidin-3-ol]										261	2.6	95.1	4.2	117					
C[C@]1(O)CC[C@@H](Nc2cc(Nc3ccnc(-c4cnn(CC(F)F)c4)n3)ncc2-c2ccn(CC(F)F)n2)CC1 [Example 343, (1s,4s)-4-((5-(1-(2,2-Difluoroethyl)-1H-pyrazol-3-yl)-2-((2-(1-(2,2-difluoroethyl)-1H-pyrazol-4-yl)pyrimidin-4-yl)amino)pyridin-4-yl)amino)-1-methylcyclohexan-1-ol]										35.3	0.2	4.7	0.1	0.3					
O=S(=O)(C1CC1)n1cc(-c2cc(Nc3ncc(-c4ccn(CC(F)(F)F)n4)c(N[C@H]4CC[C@@H](F)CC4)n3)ccn2)cn1 [Example 366, N^2-(2-(1-(Cyclopropylsulfonyl)-1H-pyrazol-4-yl)pyridin-4-yl)-N^4-((1s,4s)-4-fluorocyclohexyl)-5-(1-(2,2,2-trifluoroethyl)-1H-pyrazol-3-yl)pyrimidine-2,4-diamine]										3320	3.1	249	8.5	127					
Cn1ccc(-c2cnc(Nc3ccnc(-c4cnn(S(=O)(=O)C5CC5)c4)n3)cc2NC[C@H]2CC[C@@H](O)C2)n1 [Example 118, (1R,3S)-3-(((2-((2-(1-(Cyclopropylsulfonyl)-1H-pyrazol-4-yl)pyrimidin-4-yl)amino)-5-(1-methyl-1H-pyrazol-3-yl)pyridin-4-yl)amino)methyl)cyclopentan-1-ol]	1320	4.9	0.3	0.1	0.2	0.3	0.2	0.2	0.2										3.6
